Earlier results, collected in paper PMC9851200, “Multiparameter phenotypic screening for endogenous TFEB and TFE3 translocation identifies novel chemical series modulating lysosome function” (Autophagy, 2022).

Key:
Parameters in all cases: method as in original PKIS2 published data
[1] = molecular target: T1, kinases (KINOMEscan panel) (Homo sapiens, UniProt O00329); settings: Published KINOMEscan; ref original PKIS2 published data; cited from earlier work
T1 sequence (O00329 1-1044): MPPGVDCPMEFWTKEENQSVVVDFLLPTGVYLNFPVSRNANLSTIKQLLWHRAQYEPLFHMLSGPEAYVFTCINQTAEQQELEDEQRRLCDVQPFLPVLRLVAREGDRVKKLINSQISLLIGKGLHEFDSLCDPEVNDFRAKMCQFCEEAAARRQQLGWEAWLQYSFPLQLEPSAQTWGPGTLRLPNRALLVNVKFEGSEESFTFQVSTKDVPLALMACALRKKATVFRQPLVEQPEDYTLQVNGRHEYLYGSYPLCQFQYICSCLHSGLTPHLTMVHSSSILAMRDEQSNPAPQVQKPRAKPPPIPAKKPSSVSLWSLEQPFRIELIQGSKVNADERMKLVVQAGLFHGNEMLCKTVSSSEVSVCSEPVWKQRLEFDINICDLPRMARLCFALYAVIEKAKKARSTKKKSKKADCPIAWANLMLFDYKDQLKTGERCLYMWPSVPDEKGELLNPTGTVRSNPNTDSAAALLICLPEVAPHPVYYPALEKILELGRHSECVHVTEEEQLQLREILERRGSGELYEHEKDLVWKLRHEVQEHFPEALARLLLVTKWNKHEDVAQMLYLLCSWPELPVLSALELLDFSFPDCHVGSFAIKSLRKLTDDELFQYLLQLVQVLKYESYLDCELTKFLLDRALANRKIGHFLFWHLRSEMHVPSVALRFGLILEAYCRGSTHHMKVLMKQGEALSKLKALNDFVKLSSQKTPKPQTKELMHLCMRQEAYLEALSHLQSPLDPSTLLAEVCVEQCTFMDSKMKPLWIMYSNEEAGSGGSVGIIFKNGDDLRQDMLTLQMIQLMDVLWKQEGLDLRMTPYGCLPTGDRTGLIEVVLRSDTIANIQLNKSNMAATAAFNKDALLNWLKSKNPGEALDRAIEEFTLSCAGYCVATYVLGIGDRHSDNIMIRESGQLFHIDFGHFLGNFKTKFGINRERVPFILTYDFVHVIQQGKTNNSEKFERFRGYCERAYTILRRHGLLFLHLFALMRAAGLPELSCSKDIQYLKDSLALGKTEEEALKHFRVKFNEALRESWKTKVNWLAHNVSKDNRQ

[2] = molecular target: T2, kinases (KINOMEscan panel) (Homo sapiens, UniProt O14936); settings: kinase CASK; Published KINOMEscan; ref original PKIS2 published data; cited from earlier work
T2 sequence (O14936 1-926): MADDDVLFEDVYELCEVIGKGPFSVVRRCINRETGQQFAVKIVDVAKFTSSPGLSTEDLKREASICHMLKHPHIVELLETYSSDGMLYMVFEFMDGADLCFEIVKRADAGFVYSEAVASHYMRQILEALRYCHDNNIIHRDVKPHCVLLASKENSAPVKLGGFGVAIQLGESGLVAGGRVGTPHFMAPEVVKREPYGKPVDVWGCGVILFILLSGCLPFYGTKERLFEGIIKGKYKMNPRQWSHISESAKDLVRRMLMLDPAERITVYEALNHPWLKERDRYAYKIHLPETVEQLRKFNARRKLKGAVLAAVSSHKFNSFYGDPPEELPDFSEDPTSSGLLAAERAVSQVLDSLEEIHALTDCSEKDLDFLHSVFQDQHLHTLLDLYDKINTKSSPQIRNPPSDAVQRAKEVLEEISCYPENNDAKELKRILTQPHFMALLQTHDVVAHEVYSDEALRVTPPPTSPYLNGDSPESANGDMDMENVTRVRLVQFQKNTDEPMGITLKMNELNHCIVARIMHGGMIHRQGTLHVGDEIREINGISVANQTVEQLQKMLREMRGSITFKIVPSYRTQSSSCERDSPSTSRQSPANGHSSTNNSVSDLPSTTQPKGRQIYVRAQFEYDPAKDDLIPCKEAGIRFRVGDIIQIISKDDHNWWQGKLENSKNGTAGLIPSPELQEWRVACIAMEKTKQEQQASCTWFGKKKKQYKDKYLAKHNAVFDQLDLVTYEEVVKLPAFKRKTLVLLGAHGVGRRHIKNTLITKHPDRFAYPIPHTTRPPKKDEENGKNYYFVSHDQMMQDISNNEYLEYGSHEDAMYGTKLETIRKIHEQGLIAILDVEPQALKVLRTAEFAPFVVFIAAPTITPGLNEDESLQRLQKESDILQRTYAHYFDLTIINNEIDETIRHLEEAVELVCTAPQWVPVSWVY

[3] = molecular target: kinases (KINOMEscan panel) (Homo sapiens, UniProt P00533); settings: kinase EGFR; Published KINOMEscan; ref original PKIS2 published data; cited from earlier work
[4] = molecular target: T3, kinases (KINOMEscan panel) (Homo sapiens, UniProt Q8TF76); settings: HASPIN; Published KINOMEscan; ref original PKIS2 published data; cited from earlier work
T3 sequence (Q8TF76 1-798): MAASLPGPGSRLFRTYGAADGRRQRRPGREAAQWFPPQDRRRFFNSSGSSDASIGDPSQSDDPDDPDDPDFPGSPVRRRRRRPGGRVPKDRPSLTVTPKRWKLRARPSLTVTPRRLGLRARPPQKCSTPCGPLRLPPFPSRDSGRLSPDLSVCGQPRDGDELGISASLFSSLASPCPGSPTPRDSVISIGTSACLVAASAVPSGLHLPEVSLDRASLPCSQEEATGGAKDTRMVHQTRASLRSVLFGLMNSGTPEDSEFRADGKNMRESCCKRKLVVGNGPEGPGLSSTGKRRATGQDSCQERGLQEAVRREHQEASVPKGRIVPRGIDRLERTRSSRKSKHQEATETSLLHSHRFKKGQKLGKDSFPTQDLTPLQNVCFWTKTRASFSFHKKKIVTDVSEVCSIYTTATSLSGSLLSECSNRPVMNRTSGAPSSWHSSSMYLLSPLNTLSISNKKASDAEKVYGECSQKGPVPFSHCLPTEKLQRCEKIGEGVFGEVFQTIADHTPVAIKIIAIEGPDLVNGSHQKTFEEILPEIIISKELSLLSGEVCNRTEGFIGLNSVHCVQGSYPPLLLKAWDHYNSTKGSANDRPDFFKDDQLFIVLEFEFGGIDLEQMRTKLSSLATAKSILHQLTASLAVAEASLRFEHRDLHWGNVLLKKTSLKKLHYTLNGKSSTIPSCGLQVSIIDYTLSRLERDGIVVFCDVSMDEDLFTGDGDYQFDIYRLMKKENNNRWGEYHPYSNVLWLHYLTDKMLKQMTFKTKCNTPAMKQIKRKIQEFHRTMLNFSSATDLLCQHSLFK

Chain of kinases (KINOMEscan panel) (Homo sapiens, UniProt P00533) (P00533 25-1210): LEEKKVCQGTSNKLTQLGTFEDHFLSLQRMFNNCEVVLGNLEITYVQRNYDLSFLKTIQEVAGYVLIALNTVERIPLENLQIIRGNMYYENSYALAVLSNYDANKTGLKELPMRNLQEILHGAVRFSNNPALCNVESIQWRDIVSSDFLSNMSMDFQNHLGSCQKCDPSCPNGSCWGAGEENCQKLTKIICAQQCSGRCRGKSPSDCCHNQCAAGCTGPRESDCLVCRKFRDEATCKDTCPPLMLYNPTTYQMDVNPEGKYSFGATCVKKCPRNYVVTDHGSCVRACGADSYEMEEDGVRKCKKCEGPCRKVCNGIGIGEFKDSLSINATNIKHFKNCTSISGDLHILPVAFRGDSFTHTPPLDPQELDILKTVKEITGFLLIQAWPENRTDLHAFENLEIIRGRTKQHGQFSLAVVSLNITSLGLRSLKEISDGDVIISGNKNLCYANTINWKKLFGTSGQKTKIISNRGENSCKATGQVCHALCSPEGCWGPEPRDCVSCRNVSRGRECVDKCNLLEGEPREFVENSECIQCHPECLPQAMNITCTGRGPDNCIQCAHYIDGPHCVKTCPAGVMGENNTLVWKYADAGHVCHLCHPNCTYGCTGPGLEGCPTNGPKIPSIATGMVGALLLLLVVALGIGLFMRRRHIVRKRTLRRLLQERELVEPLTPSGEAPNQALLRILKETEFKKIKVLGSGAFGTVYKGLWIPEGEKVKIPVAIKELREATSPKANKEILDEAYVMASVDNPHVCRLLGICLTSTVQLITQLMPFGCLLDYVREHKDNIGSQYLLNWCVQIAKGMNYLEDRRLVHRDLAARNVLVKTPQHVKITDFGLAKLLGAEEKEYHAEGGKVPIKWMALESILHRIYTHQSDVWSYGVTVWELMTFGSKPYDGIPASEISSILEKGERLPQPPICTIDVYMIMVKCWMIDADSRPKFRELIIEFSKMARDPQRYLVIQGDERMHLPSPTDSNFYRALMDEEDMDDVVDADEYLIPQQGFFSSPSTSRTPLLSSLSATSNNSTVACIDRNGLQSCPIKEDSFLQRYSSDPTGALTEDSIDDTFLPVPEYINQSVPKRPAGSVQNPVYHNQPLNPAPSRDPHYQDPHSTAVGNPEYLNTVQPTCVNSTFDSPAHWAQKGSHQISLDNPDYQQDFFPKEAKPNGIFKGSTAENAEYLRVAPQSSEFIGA

Cc1cccc(-c2nc(Nc3ccncc3)c3ccccc3n2)n1 [NK215]
KINOMEscan PIK3CD [1]: 0 | KINOMEscan CASK [2]: 0 | KINOMEscan EGFR [3]: 6 | KINOMEscan HASPIN [4]: 26
